Measurements: the NIST ThermoML archive (doi:10.1021/je400493x)
± gives the expanded uncertainty stated by the source. Each block holds one compound with its values, some of them ahead of it.

Legend:
[1] = 298.15 K; 100 kPa; Liquid
[2] = xn = mol fraction of the nth substance listed; settings: 298.15 K, 100 kPa, Liquid
[3] = 298.15 K, Liquid mixture 1, Drop volume

Structure (SMILES): CCCCCCCCCCCC [dodecane]
mass density [1]: 745.29 ± 4.2 kg/m3 | viscosity [1]: 1.347 ± 0.033 mPa·s

Structure (SMILES): CCCCCCCCCCCC [dodecane] + CC(C)CCOP(=O)(OCCC(C)C)OCCC(C)C
mass density ([2]; x2 = 0): 745.29 ± 4.2 kg/m3 | viscosity ([2]; x2 = 0): 1.347 ± 0.033 mPa·s

Structure (SMILES): CCCCCCCCCCCC [dodecane] + O
interfacial tension ([3]; 100 kPa): 52.6 ± 0.8 mN/m

Structure (SMILES): CC(C)CCOP(=O)(OCCC(C)C)OCCC(C)C [triisopentyl phosphate]
mass density [1]: 946.95 ± 1.8 kg/m3 | viscosity [1]: 4.267 ± 0.076 mPa·s

The remaining lines, values ahead:

mass density ([2]; x1 = 0.0999): 765.49 ± 4 kg/m3 | viscosity ([2]; x1 = 0.0999): 1.488 ± 0.035 mPa·s | mass density ([2]; x1 = 0.1998): 785.78 ± 3.7 kg/m3 | viscosity ([2]; x1 = 0.1998): 1.678 ± 0.037 mPa·s | mass density ([2]; x1 = 0.3001): 805.91 ± 3.5 kg/m3 | viscosity ([2]; x1 = 0.3001): 1.896 ± 0.04 mPa·s | mass density ([2]; x1 = 0.4002): 826.05 ± 3.2 kg/m3 | viscosity ([2]; x1 = 0.4002): 2.119 ± 0.043 mPa·s | mass density ([2]; x1 = 0.5001): 846.25 ± 3 kg/m3 | viscosity ([2]; x1 = 0.5001): 2.391 ± 0.047 mPa·s | mass density ([2]; x1 = 0.5999): 866.75 ± 2.7 kg/m3 | viscosity ([2]; x1 = 0.5999): 2.674 ± 0.051 mPa·s | mass density ([2]; x1 = 0.7002): 888.26 ± 2.5 kg/m3 | viscosity ([2]; x1 = 0.7002): 3.015 ± 0.056 mPa·s | mass density ([2]; x1 = 0.7998): 909.12 ± 2.2 kg/m3 | viscosity ([2]; x1 = 0.7998): 3.375 ± 0.062 mPa·s | mass density ([2]; x1 = 0.9001): 929.41 ± 2 kg/m3 | viscosity ([2]; x1 = 0.9001): 3.804 ± 0.068 mPa·s | mass density ([2]; x1 = 1): 946.95 ± 1.8 kg/m3 | viscosity ([2]; x1 = 1): 4.267 ± 0.076 mPa·s
Structure (SMILES): CC(C)CCOP(=O)(OCCC(C)C)OCCC(C)C [triisopentyl phosphate] + CCCCCCCCCCCC

interfacial tension ([3]; 101 kPa): 14.4 ± 0.8 mN/m
Structure (SMILES): CC(C)CCOP(=O)(OCCC(C)C)OCCC(C)C [triisopentyl phosphate] + O
